Tests used:
CYP2C19 = CYP2C19 (Homo sapiens, UniProt P33261); assay: CYP450 inhibition, CYP2C19; assay type: in vitro ADME; settings: parameter and unit inferred
CYP1A2 = molecular target: T1, CYP1A2 (Homo sapiens, UniProt P05177); assay: CYP450 inhibition, CYP1A2; assay type: in vitro ADME; settings: parameter and unit inferred
T1 sequence (P05177 1-516): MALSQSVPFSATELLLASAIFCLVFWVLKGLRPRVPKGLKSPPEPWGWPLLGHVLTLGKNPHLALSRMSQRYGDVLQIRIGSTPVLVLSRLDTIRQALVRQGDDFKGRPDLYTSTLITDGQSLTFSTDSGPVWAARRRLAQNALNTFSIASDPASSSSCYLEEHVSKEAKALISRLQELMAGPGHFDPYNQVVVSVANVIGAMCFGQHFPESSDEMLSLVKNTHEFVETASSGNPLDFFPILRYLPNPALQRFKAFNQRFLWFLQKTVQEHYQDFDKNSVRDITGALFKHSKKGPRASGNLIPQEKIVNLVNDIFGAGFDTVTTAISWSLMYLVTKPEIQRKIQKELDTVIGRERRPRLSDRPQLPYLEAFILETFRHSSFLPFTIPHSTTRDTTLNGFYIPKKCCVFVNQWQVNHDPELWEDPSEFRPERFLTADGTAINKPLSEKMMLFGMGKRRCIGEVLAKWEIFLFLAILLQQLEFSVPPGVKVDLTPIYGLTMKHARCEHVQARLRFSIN

serotonin uptake = assay: Serotonin uptake functional assay (rat cortex synaptosomes); assay type: biochemical; settings: for IC50: rat cortex synaptosomes, read-out: Monoamine Neuronal Transport IC50, 5-HT Uptake
Description: Characterization of serotonin uptake is performed using synaptosomes isolated in a 0.32 M sucrose buffer from a male Wistar rat cortex. The uptake of radiolabelled serotonin by synaptosomes (100 μg of proteins/point) is allowed by incubating them for 15 minutes at 37° C. in presence of test compounds and [3H]5-hydroxytryptamin (0.1 μCi/point). The experiment is performed in a deep well.
Synaptosomes and [3H]5-hydroxytryptamin are prepared in a Krebs buffer pH 7.4 containing 25 mM NaHCO3, 11 mM glucose and 50 μM ascorbic acid. This incubation buffer is oxygenated during 5 minutes before incubation. Basal control is incubated for 15 minutes at 4° C. in order to avoid any uptake. Following this incubation the uptake is stopped by filtration through an “unifilter 96-wells GFB” Packard plate washed with Krebs buffer containing 25 mM NaHCO3 in order to eliminate the free [3H]5-hydroxytrptamin. The radioactivity associated to the synaptosomes retained onto the unifilter corresponding to the uptake is then measured with a microplate scintillation counter Topcount, Packard using a scintillation liquid microscint 0, Packard.
[See Perovics and Müller “Pharmacological profile of hypericum extract: effect on serotonin uptake by postsynaptic receptors”, Arzeim.

Human D2 Receptor = molecular target: T2, Human D2 Receptor (Homo sapiens, UniProt P14416); assay: Human D2 receptor binding ([3H]spiperone); settings: comment on Table 1
T2 construct: expressed in transfected cells; host or cells: A9L cells
Description: (§1) Dopamine and serotonin receptor binding assays were performed in a standard manner with the incubation of membrane preparations in an assay buffer in the presence of a known radioactively labeled specific ligand for the receptor subtypes. Nonspecific binding was determined by assessing binding in the presence of excess ligand. Specific binding was measured as the total labeled ligand bound after the nonspecific binding was subtracted. The effect of the tested agents was measured by determining the competition for the receptor binding across a concentration range. Subsequently, an IC50 was determined for the agents tested. More specific details are provided below for several of the assays performed.
Aliquots of transfected A9L cell membrane preparations corresponding to 20-40 μg protein are incubated for 60 min at 22° C. in 250 μL of 50 mM Tris-HCl buffer (pH 7.4) containing 120 mM NaCl, 5 mM KCl, 5 mM MgCl2, 1 mM EDTA, 0.3 nM [^3H]spiperone and increasing concentrations of the competing drugs. Nonspecific binding is determined in the presence of 10 μM (+)butaclamol. […] Bound radioactivity is measured with a scintillation counter (Topcount, Packard) using a liquid-scintillation cocktail (Microscint 0, Packard). […]

Human 5-HT2A Receptor = molecular target: T3, Human 5-HT2A Receptor (Homo sapiens, UniProt P28223); assay: Human 5-HT2A receptor binding ([3H]ketanserin); settings: comment on Table 2
T3 construct: expressed in transfected cells; host or cells: CHO cells
Description: as §1
Nonspecific binding is determined in the presence of 1 μM ketanserin. […] Bound radioactivity is measured with a scintillation counter (Topcount, Packard) using a liquid scintillation cocktail (Microscint 0, Packard). The reference compound for this assay is ketanserin.

α1 Receptor = assay: α1 receptor binding; settings: read-out: α1 Receptor Binding IC50, Alpha1
[1] = immediate-release tablets; first-pass metabolism; cited from earlier work
norepinephrine uptake = assay: Norepinephrine uptake functional assay (rat hypothalamus synaptosomes); assay type: biochemical; settings: read-out: Monoamine Neuronal Transport IC50, NE uptake
Description: Characterization of norepinephrine uptake is performed using synaptosomes isolated at Cerep in a 0.32 M sucrose buffer from a male Wistar rat hypothalamus. The uptake of radiolabeled norepinephrine by synaptosomes (100 μg of proteins/point) is allowed by incubating them for 20 minutes at 37° C. in presence of test compounds and [3H]-norepinephrine (0.1 μCi/point). The experiment is performed in a deep well.
Synaptosomes and [3H]-norepinephrine are prepared in a Krebs buffer pH 7.4 containing 25 mM NaHCO3, 11 mM glucose and 50 μM ascorbic acid. This incubation buffer is oxygenated during 5 minutes before incubation. Basal control is incubated for 20 minutes at 4° C. in order to avoid any uptake. Following this incubation the uptake is stopped by filtration through an “unifilter 96-wells GFB” Packard plate washed with Krebs buffer containing 25 mM NaHCO3 in order to eliminate the free [3H]-norepinephrine. The radioactivity associated to the synaptosomes retained onto the unifilter corresponding to the uptake is then measured with a microplate scintillation counter Topcount, Packard using a scintillation liquid microscint 0, Packard.
[See Perovics and Müller, op.cit. (1995).]

CYP3A4 = CYP3A4 (Homo sapiens, UniProt P08684); assay: CYP450 inhibition, CYP3A4 BZRes; assay type: in vitro ADME; settings: parameter and unit inferred
Sequence of CYP3A4 (P08684 whole entry): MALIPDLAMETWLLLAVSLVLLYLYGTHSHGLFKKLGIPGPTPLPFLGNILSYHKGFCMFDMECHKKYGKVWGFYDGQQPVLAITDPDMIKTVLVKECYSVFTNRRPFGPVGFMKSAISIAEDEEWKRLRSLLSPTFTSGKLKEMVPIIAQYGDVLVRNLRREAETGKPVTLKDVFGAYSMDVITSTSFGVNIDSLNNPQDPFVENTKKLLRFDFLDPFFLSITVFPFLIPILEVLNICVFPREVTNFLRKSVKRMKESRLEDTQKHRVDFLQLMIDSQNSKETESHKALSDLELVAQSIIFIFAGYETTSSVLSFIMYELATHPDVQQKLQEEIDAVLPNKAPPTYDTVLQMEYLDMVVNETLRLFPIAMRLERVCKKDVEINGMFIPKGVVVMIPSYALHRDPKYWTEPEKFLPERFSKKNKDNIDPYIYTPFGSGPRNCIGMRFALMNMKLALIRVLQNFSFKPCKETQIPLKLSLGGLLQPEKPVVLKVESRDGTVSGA

T3 sequence (P28223 whole entry): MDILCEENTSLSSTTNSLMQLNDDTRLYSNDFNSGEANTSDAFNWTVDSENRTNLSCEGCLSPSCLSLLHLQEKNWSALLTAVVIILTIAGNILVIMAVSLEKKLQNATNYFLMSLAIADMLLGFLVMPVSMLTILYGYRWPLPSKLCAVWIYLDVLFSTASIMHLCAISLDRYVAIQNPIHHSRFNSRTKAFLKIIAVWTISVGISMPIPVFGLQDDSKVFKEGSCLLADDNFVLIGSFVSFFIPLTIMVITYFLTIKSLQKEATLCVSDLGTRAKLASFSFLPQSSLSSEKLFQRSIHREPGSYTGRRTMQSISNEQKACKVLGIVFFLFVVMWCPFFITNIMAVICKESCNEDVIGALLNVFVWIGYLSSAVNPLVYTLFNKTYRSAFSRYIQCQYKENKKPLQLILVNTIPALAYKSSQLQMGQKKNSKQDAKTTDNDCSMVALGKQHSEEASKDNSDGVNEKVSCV
T2 sequence (P14416 whole entry): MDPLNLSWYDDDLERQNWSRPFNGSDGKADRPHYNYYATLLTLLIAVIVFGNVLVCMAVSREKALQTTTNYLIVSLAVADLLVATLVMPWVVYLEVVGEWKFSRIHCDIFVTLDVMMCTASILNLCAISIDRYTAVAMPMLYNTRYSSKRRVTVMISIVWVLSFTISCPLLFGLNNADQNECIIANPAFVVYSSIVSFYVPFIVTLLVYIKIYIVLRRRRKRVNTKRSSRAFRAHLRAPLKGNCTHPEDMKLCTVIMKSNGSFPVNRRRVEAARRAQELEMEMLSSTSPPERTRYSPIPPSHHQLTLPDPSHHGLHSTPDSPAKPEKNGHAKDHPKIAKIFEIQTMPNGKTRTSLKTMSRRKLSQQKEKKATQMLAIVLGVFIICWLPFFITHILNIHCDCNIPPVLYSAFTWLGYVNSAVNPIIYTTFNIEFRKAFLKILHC
Sequence of CYP2C19 (P33261 whole entry): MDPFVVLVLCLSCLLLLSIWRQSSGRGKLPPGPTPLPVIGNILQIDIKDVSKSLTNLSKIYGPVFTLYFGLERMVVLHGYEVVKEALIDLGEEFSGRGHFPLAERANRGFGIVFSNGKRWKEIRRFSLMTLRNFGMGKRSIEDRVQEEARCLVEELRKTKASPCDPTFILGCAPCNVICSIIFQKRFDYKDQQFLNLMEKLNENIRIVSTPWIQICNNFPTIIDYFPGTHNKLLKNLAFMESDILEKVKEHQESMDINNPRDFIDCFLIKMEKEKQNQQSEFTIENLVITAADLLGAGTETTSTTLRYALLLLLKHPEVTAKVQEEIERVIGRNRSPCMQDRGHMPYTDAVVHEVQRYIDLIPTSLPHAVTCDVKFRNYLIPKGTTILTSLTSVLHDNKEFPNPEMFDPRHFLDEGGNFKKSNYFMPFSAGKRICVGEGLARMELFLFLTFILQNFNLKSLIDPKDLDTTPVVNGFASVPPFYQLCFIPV

IC50 (CYP2C19)	IC50 (CYP1A2)	IC50 (serotonin uptake)	Affinity for the D2 receptor (in words) (Human D2 Receptor)	Affinity for 5HT2A receptors (in words) (Human 5-HT2A Receptor)	IC50 (α1 Receptor)	IC50 (norepinephrine uptake)	IC50 (CYP3A4)	Compound	Activity in inhibiting serotonin uptake (in words) (serotonin uptake; comment on Table 4)	Bioavailability [1]
> 200000 nM	> 200000 nM	790 nM	excellent affinity	highest affinity	419 nM	–	–	C[C@H](O)c1nn(CCCN2CCN(c3cccc(Cl)c3)CC2)c(=O)n1CCOc1ccccc1 [(S)—OH]	least active enantiomer	–
–	–	500 nM	–	–	381 nM	1000 nM	–	CC(O)c1nn(CCCN2CCN(c3cccc(Cl)c3)CC2)c(=O)n1CCOc1ccccc1 (racemic) [(RS)—OH, hydroxynefazodone]	–	–
–	> 200000 nM	640 nM	–	–	367 nM	1200 nM	> 200000 nM	C[C@@H](O)c1nn(CCCN2CCN(c3cccc(Cl)c3)CC2)c(=O)n1CCOc1ccccc1 [(R)—OH, (R)-Hydroxynefazodone]	–	–

Compound	IC50 (CYP2C19)	IC50 (CYP1A2)	IC50 (serotonin uptake)	Affinity for the D2 receptor (in words) (Human D2 Receptor)	Affinity for 5HT2A receptors (in words) (Human 5-HT2A Receptor)	IC50 (α1 Receptor)	IC50 (norepinephrine uptake)	IC50 (CYP3A4)	Activity in inhibiting serotonin uptake (in words) (serotonin uptake; comment on Table 4)	Bioavailability [1]
CCc1nn(CCCN2CCN(c3cccc(Cl)c3)CC2)c(=O)n1CCOc1ccccc1 [Nefazodone, 2-[3-[4-(3-chlorophenyl)-1-piperazinyl]-propyl-]5-ethyl-2,4-dihydro-4-(2-phenoxy-ethyl)-3H-1,2,4-triazol-3-one, reference compound]	–	> 200000 nM	200 nM	–	–	306 nM	1200 nM	–	–	approximately 20%

Reference: patent US20030083338A1, “Compositions and methods for management of serotonin-mediated disorders” (priority 2001, published 2003)
